Read-outs that look alike come from different tables or passages of the source.
Legend:
GST-MCL-1 = GST-MCL-1 (Homo sapiens, UniProt Q07820); test: TR-FRET MCL-1 binding assay (competition with probe F-Bak)
Summary of the method: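 Test compounds, 11 three-fold dilutions from 25 μM final, incubated 2 hours at room temperature with GST-MCL-1, F-Bak probe and Tb-anti-GST antibody. TR-FRET read at 340/35 nm excitation with 520/525 and 495/510 nm emission. Run without human serum and with 10% HS.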

[1] = test system: AMO-1 human multiple myeloma tumor cell line; test: AMO-1 cell viability assay (CellTiter-Glo, 24 hours); format: cell-based
Description: Each concentration was tested in duplicate at least 3 independent times. A luminescent signal proportional to the number of viable cells following 24 hours of compound treatment was determined using the CellTiter-Glo® Luminescent Cell Viability Assay according to the manufacturer's recommendations (Promega Corp., Madison, WI). The plates were read in a Perkin Elmer Envision using a Luminescence protocol. To generate dose response curves the data is normalized to percent viability by setting the averages of the staurosporine (10 μM) and DMSO only control wells to 0% and 100% viability respectively.

[2] = test system: NCI-H929 human multiple myeloma tumor cell line; test: NCI-H929 cell viability assay (CellTiter-Glo, 24 hours); format: cell-based
[3] = MCL-1 Binding Ki (nM, 10% HS), in the presence of 10% HS (human serum)
[4] = without HS, read-out: MCL-1 Binding Ki
[5] = Homo sapiens, AMO1, 24 h, read-out: AMO-1 Viability IC50 (μM, 10% FBS), 10% FBS, 24 hours of compound treatment
[6] = Homo sapiens, NCI-H929, 24 h, read-out: H929 Viability IC50 (μM, 10% FBS), 10% FBS, 24 hours of compound treatment

Sequence of GST-MCL-1 (Q07820 whole entry): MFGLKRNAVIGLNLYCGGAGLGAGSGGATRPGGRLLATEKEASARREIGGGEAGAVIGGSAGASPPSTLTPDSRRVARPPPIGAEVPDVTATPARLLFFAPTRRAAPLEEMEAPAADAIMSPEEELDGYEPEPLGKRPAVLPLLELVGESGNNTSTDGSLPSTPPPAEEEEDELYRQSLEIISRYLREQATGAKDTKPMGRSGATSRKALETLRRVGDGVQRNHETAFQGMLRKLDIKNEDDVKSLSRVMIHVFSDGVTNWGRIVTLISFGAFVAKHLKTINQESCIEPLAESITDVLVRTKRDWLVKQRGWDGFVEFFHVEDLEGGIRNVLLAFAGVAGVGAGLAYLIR

Compound	Ki (GST-MCL-1; [3])	Ki (GST-MCL-1; [4])	IC50 [1, 5]	IC50 [2, 6]	IC50 ([1]; read-out: AMO-1 Viability IC50 (μM, 10% FBS), 10% FBS, 24 hours of compound treatment)	IC50 ([2]; read-out: H929 Viability IC50 (μM, 10% FBS), 10% FBS, 24 hours of compound treatment)
CO[C@H]1O[C@H](COc2ccc(-c3nccc(COc4ccc5cc4C[C@H](C(=O)O)Oc4ncnc6sc(-c7ccc(F)cc7)c(c46)-c4ccc(c(Cl)c4C)O[C@H](CN4CCN(C)CC4)CO5)n3)cc2)[C@@H](O)[C@H](O)[C@@H]1O [Example 12, methyl 6-O-{4-[4-({[(7R,16R,21S)-7-carboxy-19-chloro-1-(4-fluorophenyl)-20-methyl-16-[(4-methylpiperazin-1-yl)methyl]-7,8,15,16-tetrahydro-18,21-etheno-13,9-(metheno)-6,14,17-trioxa-2-thia-3,5-diazacyclononadeca[1,2,3-cd]inden-10-yl]oxy}methyl)pyrimidin-2-yl]phenyl}-a-D-mannopyranoside]	0.227 nM	0.603 nM	0.0187 µM	0.0316 µM		
Cc1c(Cl)c2c(Cl)c(C)c1-c1c(-c3ccc(F)cc3)sc3ncnc(c13)O[C@@H](C(=O)O)Cc1cc(ccc1OCc1ccnc(C3(COCCOC[C@H]4COCCO4)CCCCC3)n1)OC[C@@H](CN1CCN(C)CC1)O2 [Example 102, (7R,16R)-19,23-dichloro-10-[(2-{1-[(2-{[(2R)-1,4-dioxan-2-yl]methoxy}ethoxy)methyl]cyclohexyl}pyrimidin-4-yl)methoxy]-1-(4-fluorophenyl)-20,22-dimethyl-16-[(4-methylpiperazin-1-yl)methyl]-7,8,15,16-tetrahydro-18,21-etheno-13,9-(metheno)-6,14,17-trioxa-2-thia-3,5-diazacyclononadeca[1,2,3-cd]indene-7-carboxylic Acid]	3.27 nM	0.229 nM	0.00029 µM	0.000835 µM		
COCCOCCOCCOCCOCCOCCOCCOCCOCCOCCOCCC(=O)NCc1ccc(-c2nccc(COc3ccc4cc3C[C@H](C(=O)O)Oc3ncnc5sc(-c6ccc(F)cc6)c(c35)-c3c(C)c(Cl)c(c(Cl)c3C)O[C@H](CN3CCN(C)CC3)CO4)n2)cc1 [Example 50, (7R,16R)-19,23-dichloro-1-(4-fluorophenyl)-20,22-dimethyl-16-[(4-methylpiperazin-1-yl)methyl]-10-({2-[4-(35-oxo-2,5,8,11,14,17,20,23,26,29,32-undecaoxa-36-azaheptatriacontan-37-yl)phenyl]pyrimidin-4-yl}methoxy)-7,8,15,16-tetrahydro-18,21-etheno-13,9-(metheno)-6,14,17-trioxa-2-thia-3,5-diazacyclononadeca[1,2,3-cd]indene-7-carboxylic Acid]	0.513 nM	0.199 nM	0.0676 µM	0.103 µM		
COCCOCCOCCOCC1(F)CC=C(c2nccc(COc3ccc4cc3C[C@H](C(=O)O)Oc3ncnc5sc(-c6ccc(F)cc6)c(c35)-c3c(C)c(Cl)c(c(Cl)c3C)O[C@H](CN3CCN(C)CC3)CO4)n2)CC1 (single isomer, unassigned) [Example 111, (7R,16R)-19,23-dichloro-1-(4-fluorophenyl)-10-({2-[(4R*)-4-fluoro-4-(2,5,8,11-tetraoxadodecan-1-yl)cyclohex-1-en-1-yl]pyrimidin-4-yl}methoxy)-20,22-dimethyl-16-[(4-methylpiperazin-1-yl)methyl]-7,8,15,16-tetrahydro-18,21-etheno-13,9-(metheno)-6,14,17-trioxa-2-thia-3,5-diazacyclononadeca[1,2,3-cd]indene-7-carboxylic Acid]	0.101 nM	0.014 nM			0.000161 µM	0.000298 µM
COCCOCCOCCOc1cccc(COc2ccc3cc2C[C@H](C(=O)O)Oc2ncnc4sc(-c5ccc(F)cc5)c(c24)-c2c(C)c(Cl)c(c(Cl)c2C)O[C@H](CN2CCN(C)CC2)CO3)n1 [Example 99, (7R,16R)-19,23-dichloro-1-(4-fluorophenyl)-10-[(6-{2-[2-(2-methoxyethoxy)ethoxy]ethoxy}pyridin-2-yl)methoxy]-20,22-dimethyl-16-[(4-methylpiperazin-1-yl)methyl]-7,8,15,16-tetrahydro-18,21-etheno-9,13-(metheno)-6,14,17-trioxa-2-thia-3,5-diazacyclononadeca[1,2,3-cd]indene-7-carboxylic Acid]	6.17 nM	0.543 nM	0.000655 µM	0.00269 µM		
COCCOCCOCCOCC1(c2nccc(COc3ccc4cc3C[C@H](C(=O)O)Oc3ncnc5sc(-c6ccc(F)cc6)c(c35)-c3c(C)c(Cl)c(c(Cl)c3C)O[C@H](CN3CCN(C)CC3)CO4)n2)CCC1 [Example 45, (7R,16R)-19,23-dichloro-1-(4-fluorophenyl)-20,22-dimethyl-16-[(4-methylpiperazin-1-yl)methyl]-10-({2-[1-(2,5,8,11-tetraoxadodecan-1-yl)cyclobutyl]pyrimidin-4-yl}methoxy)-7,8,15,16-tetrahydro-18,21-etheno-13,9-(metheno)-6,14,17-trioxa-2-thia-3,5-diazacyclononadeca[1,2,3-cd]indene-7-carboxylic Acid]	0.343 nM	0.094 nM	0.000461 µM	0.000598 µM		
Cc1c(Cl)c2c(Cl)c(C)c1-c1c(-c3ccc(F)cc3)sc3ncnc(c13)O[C@@H](C(=O)O)Cc1cc(ccc1OCc1ccnc(N3CCC(CC(=O)O)CC3)n1)OC[C@@H](CN1CCN(C)CC1)O2 [Example 49, (7R,16R)-10-({2-[4-(carboxymethyl)piperidin-1-yl]pyrimidin-4-yl}methoxy)-19,23-dichloro-1-(4-fluorophenyl)-20,22-dimethyl-16-[(4-methylpiperazin-1-yl)methyl]-7,8,15,16-tetrahydro-18,21-etheno-13,9-(metheno)-6,14,17-trioxa-2-thia-3,5-diazacyclononadeca[1,2,3-cd]indene-7-carboxylic Acid]	0.775 nM	0.039 nM	0.0222 µM	0.0431 µM		
Cc1c(Cl)c2c(Cl)c(C)c1-c1c(-c3ccc(F)cc3)sc3ncnc(c13)O[C@@H](C(=O)O)Cc1cc(ccc1OCc1ccnc([C@@]3(O)CCCC[C@@H]3O)n1)OC[C@@H](CN1CCN(C)CC1)O2 [Example 38, (7R,16R)-19,23-dichloro-10-({2-[(1S,2S)-1,2-dihydroxycyclohexyl]pyrimidin-4-yl}methoxy)-1-(4-fluorophenyl)-20,22-dimethyl-16-[(4-methylpiperazin-1-yl)methyl]-7,8,15,16-tetrahydro-18,21-etheno-9,13-(metheno)-6,14,17-trioxa-2-thia-3,5-diazacyclononadeca[1,2,3-cd]indene-7-carboxylic Acid]	0.416 nM	0.106 nM	0.00236 µM	0.00577 µM		
COCCOCCOCCOCCOCCOCCOCCOCCOCCOCCOCCOCCOCC1(c2nccc(COc3ccc4cc3C[C@H](C(=O)O)Oc3ncnc5sc(-c6ccc(F)cc6)c(c35)-c3c(C)c(Cl)c(c(Cl)c3C)O[C@H](CN3CCN(C)CC3)CO4)n2)CCC1 [Example 44, (7R,16R)-19,23-dichloro-1-(4-fluorophenyl)-20,22-dimethyl-16-[(4-methylpiperazin-1-yl)methyl]-10-({2-[1-(2,5,8,11,14,17,20,23,26,29,32,35,38-tridecaoxanonatriacontan-1-yl)cyclobutyl]pyrimidin-4-yl}methoxy)-7,8,15,16-tetrahydro-18,21-etheno-13,9-(metheno)-6,14,17-trioxa-2-thia-3,5-diazacyclononadeca[1,2,3-cd]indene-7-carboxylic Acid]	0.224 nM	0.124 nM	0.0211 µM	0.0179 µM		
